According to US12458605B2, “Lipid nanoparticle” (National University Corporation Hokkaido University, priority 2020, dated 2025):

Experiments:
F7 = assay: In vivo F7 knockdown, plasma F7 enzyme activity, ICR mice; details: i.v. 0.003-0.1 mg siRNA/kg, plasma at 24 hours, compared with LNP of CL4H6 or CL15H6 (FIG. 2)
Protocol: Then, each prepared F7siRNA-loaded lipid nanoparticles were administered to ICR mice (4 weeks old, female) and in vivo F7 knockdown activity was examined.
Specifically, each F7siRNA-loaded lipid nanoparticles were intravenously administered to ICR mice at 0.003-0.1 mg siRNA/kg, and plasma F7 enzyme activity at 24 hours later was measured. Relative plasma F7 enzyme activity (%) of mice administered each F7siRNA-loaded lipid nanoparticles was calculated using plasma F7 enzyme activity of untreated mice as 100%. FIG. 2(B) is the results of intravenous administration of each F7siRNA-loaded lipid nanoparticle at 0.1 mg siRNA/kg.

[1] = Nucleic acid encapsulation rate by Ribogreen (section II); format: physicochemical; details: for % mRNA encapsulation: NlucmRNA-loaded LNP, 60:10:40:1; for % pDNA encapsulation: pFluc-loaded LNP
Protocol: The encapsulation rates of siRNA, mRNA, and pDNA of lipid nanoparticles were measured using Ribogreen (manufactured by life technologies).

liver = assay: In vivo Fluc activity of FlucmRNA-loaded LNP by in vivo imaging, liver; details: Balb/c mice, FlucmRNA-loaded LNP i.v. 0.1 mg mRNA/kg, 6 hours
Summary of the method: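 Read-out is average radiance (p/s/cm2/sr, about 560 nm) from whole-animal imaging of liver and spleen 6 h post-dose, after tail-vein luciferin at 1.5 mg/mouse. Dosing was intravenous, 0.1 mg mRNA/kg, in 7-week-old female Balb/c mice.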

[2] = Average particle size (ζ-Average) and PDI by dynamic light scattering (Zetasizer Nano ZSP); format: physicochemical
Summary of the method: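 Dynamic light scattering of the particles in PBS(−) gave both the polydispersity index and the ζ-Average mean size.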

[3] = F7siRNA-loaded LNP, 50:10:38.5:1.5, N/P ratio 6
[4] = FlucmRNA-loaded LNP, 50:10:38.5:1.5
[5] = FlucmRNA-loaded LNP, lipid:DSPC:cholesterol:DMG-PEG2K 50:10:38.5:1.5

## CCCCCCCCC(CCCCCC)C(=O)OCCCCCCC(O)(CCCCCCOC(=O)C(CCCCCC)CCCCCCCC)CCCCOC(=O)C1CCN(C)CC1 (stereo not drawn) [CL15F6]
F7
  in vivo F7 knockdown activity, compared: equivalent in vivo F7 knockdown activity
[1]
  % mRNA encapsulation: 90.3%
[1]; N/P ratio 6
  % pDNA encapsulation: 95.4%
[1]; N/P ratio 9
  % pDNA encapsulation: 93.1 ± 3.3%
liver
  Fluc Activity in liver: 6.28E+06 Avg Radiance [p/s/cm2/sr]
[2]; [3]
  PDI: 0.044
  ζ-Average (nm): 105.9 nm
[2]; [4]
  PDI: 0.002
[2]; [5]
  ζ-Average (nm): 115.50 nm

## CCCN(CCC)CCCCC(O)(CCCCCCOC(=O)C(CCC(C)CC(C)(C)C)C(C)CC(C)(C)C)CCCCCCOC(=O)C(CCC(C)CC(C)(C)C)C(C)CC(C)(C)C (stereo not drawn) [CL4G6, 7-(4-(dipropylamino)butyl)-7-hydroxytridecan-1,13-diyl bis(2-(4.4-dimethylpentan-2-yl)-5,7,7-trimethyloctanoate)]
F7
  in vivo F7 knockdown activity, compared: equivalent in vivo F7 knockdown activity
[1]
  % mRNA encapsulation: 91.7%
[1]; N/P ratio 6
  % pDNA encapsulation: 97.6%
[1]; N/P ratio 9
  % pDNA encapsulation: 94.5 ± 3.6%
liver
  Fluc Activity in liver: 4.58E+07 Avg Radiance [p/s/cm2/sr]
[2]; [3]
  PDI: 0.048
  ζ-Average (nm): 85.14 nm
[2]; [4]
  PDI: 0.030
[2]; [5]
  ζ-Average (nm): 81.21 nm
